According to ChEMBL document CHEMBL1201862, “PubChem BioAssay data set” (2004):
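Following 48 hours of exposure in 96-well plates, responses at five concentrations were used to interpolate endpoints linearly. GI50 marks 50% less growth.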 Active and inactive are the calls of the source. No stated cut-off is given here; in the data, active = GI50 up to about 1.1 µM and inactive = higher.

Assays:
Experiment in all cases: NCI anticancer screen, dose series, 48 h
NCI-H460 = system: NCI-H460
NCI-H23 = system: NCI-H23
SF-295 = system: SF-295
OVCAR-8 = system: OVCAR-8
T47D = system: T47D
786-0 = system: 786-0
OVCAR-4 = system: OVCAR-4
SN12C = system: SN12C
DU-145 = system: DU-145
HOP-62 = system: HOP-62
SK-MEL-28 = system: SK-MEL-28
UACC-62 = system: UACC-62
LOX IMVI = system: LOX IMVI
CCRF-CEM = system: CCRF-CEM
NCI/ADR-RES = system: NCI/ADR-RES
NCI-H226 = system: NCI-H226
U-251 = system: U-251
A498 = system: A498
IGROV-1 = system: IGROV-1
RPMI-8226 = system: RPMI-8226
PC-3 = system: PC-3
UACC-257 = system: UACC-257
OVCAR-3 = system: OVCAR-3
SNB-75 = system: SNB-75
SF-539 = system: SF-539
SF-268 = system: SF-268
SK-MEL-2 = system: SK-MEL-2
ACHN = system: ACHN
MDA-MB-231 = system: MDA-MB-231
NCI-H522 = system: NCI-H522
KM12 = system: KM12
MDA-N = system: MDA-N
HL-60 = system: HL-60
TK-10 = system: TK-10
SW-620 = system: SW-620
A549 = system: A549
HCT-15 = system: HCT-15
K562 = system: K562
Hs-578T = system: Hs-578T
HCT-116 = system: HCT-116
UO-31 = system: UO-31
RXF 393 = system: RXF 393
Malme-3M = system: Malme-3M
COLO 205 = system: COLO 205
MCF7 = system: MCF7
BT-549 = system: BT-549
HOP-92 = system: HOP-92
SK-MEL-5 = system: SK-MEL-5
SNB-19 = system: SNB-19
SR = system: SR
MOLT-4 = system: MOLT-4
EKVX = system: EKVX
M14 = system: M14
MDA-MB-435 = system: MDA-MB-435
CAKI-1 = system: CAKI-1
HT-29 = system: HT-29
OVCAR-5 = system: OVCAR-5
SK-OV-3 = system: SK-OV-3
HCC 2998 = system: HCC 2998

SMILES: CCOC(=O)/C=C(/OCC)[C@@H]1C(C(=O)c2ccc(Cl)cc2)[C@@H]1/C(=C\C(=O)OCC)OCC (some centres undefined)
- GI50 (NCI-H460): 18.6 µM (inactive)
- GI50 (NCI-H23): 11.7 µM (inactive)
- GI50 (SF-295): 7.98 µM (inactive)
- GI50 (OVCAR-8): 6.56 µM (inactive)
- GI50 (T47D): 6.01 µM (inactive)
- GI50 (786-0): > 33.7 µM (inactive)
- GI50 (OVCAR-4): 67.3 µM (inactive)
- GI50 (SN12C): 17.7 µM (inactive)
- GI50 (DU-145): 47.1 µM (inactive)
- GI50 (HOP-62): 14.3 µM (inactive)
- GI50 (SK-MEL-28): 41.7 µM (inactive)
- GI50 (UACC-62): 28.8 µM (inactive)
- GI50 (LOX IMVI): 24.3 µM (inactive)
- GI50 (CCRF-CEM): 5.69 µM (inactive)
- GI50 (NCI/ADR-RES): 3.6 µM (inactive)
- GI50 (NCI-H226): 6.27 µM (inactive)
- GI50 (U-251): 4.99 µM (inactive)
- GI50 (A498): 8.89 µM (inactive)
- GI50 (IGROV-1): 56.5 µM (inactive)
- GI50 (RPMI-8226): 2.79 µM (inactive)
- GI50 (PC-3): 5.89 µM (inactive)
- GI50 (UACC-257): 6.75 µM (inactive)
- GI50 (OVCAR-3): 7.57 µM (inactive)
- GI50 (SNB-75): 7.5 µM (inactive)
- GI50 (SF-539): 22.1 µM (inactive)
- GI50 (SF-268): 45 µM (inactive)
- GI50 (SK-MEL-2): 56.4 µM (inactive)
- GI50 (ACHN): 13.2 µM (inactive)
- GI50 (MDA-MB-231): 10.1 µM (inactive)
- GI50 (NCI-H522): 3.62 µM (inactive)
- GI50 (KM12): 6.87 µM (inactive)
- GI50 (MDA-N): 17.5 µM (inactive)
- GI50 (HL-60): 3.12 µM (inactive)
- GI50 (TK-10): 6.32 µM (inactive)
- GI50 (SW-620): 12.6 µM (inactive)
- GI50 (A549): 10.9 µM (inactive)
- GI50 (HCT-15): > 33 µM
- GI50 (K562): 2.62 µM (inactive)
- GI50 (Hs-578T): 12.9 µM (inactive)
- GI50 (HCT-116): 5.18 µM (inactive)
- GI50 (UO-31): 4.53 µM (inactive)
- GI50 (RXF 393): 14.3 µM (inactive)
- GI50 (Malme-3M): 16.8 µM (inactive)
- GI50 (COLO 205): 6.68 µM (inactive)
- GI50 (MCF7): 11.2 µM (inactive)
- GI50 (BT-549): 48.5 µM (inactive)
- GI50 (HOP-92): 2.47 µM (inactive)
- GI50 (SK-MEL-5): 4.41 µM (inactive)
- GI50 (SNB-19): 11.9 µM (inactive)
- GI50 (SR): 17.7 µM (inactive)
- GI50 (MOLT-4): 3.98 µM (inactive)
- GI50 (EKVX): 14.5 µM (inactive)
- GI50 (M14): 14.5 µM (inactive)
- GI50 (MDA-MB-435): 6.58 µM (inactive)
- GI50 (CAKI-1): 16.9 µM (inactive)
- GI50 (HT-29): 7.53 µM (inactive)
- GI50 (OVCAR-5): 30.6 µM (inactive)
- GI50 (SK-OV-3): 27.2 µM (inactive)

SMILES: CCCCN1CSC(=S)N(Cc2ccccc2)C1
- GI50 (NCI-H460): 31.9 µM (inactive)
- GI50 (NCI-H23): 42.6 µM (inactive)
- GI50 (SF-295): 48.1 µM (inactive)
- GI50 (OVCAR-8): 66.4 µM (inactive)
- GI50 (T47D): 34.8 µM (inactive)
- GI50 (786-0): 34.4 µM (inactive)
- GI50 (OVCAR-4): 56.8 µM (inactive)
- GI50 (SN12C): > 71 µM (inactive)
- GI50 (DU-145): 69.3 µM (inactive)
- GI50 (HOP-62): > 100 µM (inactive)
- GI50 (SK-MEL-28): > 100 µM (inactive)
- GI50 (UACC-62): 41.2 µM (inactive)
- GI50 (LOX IMVI): 36.9 µM (inactive)
- GI50 (CCRF-CEM): 4.47 µM (inactive)
- GI50 (NCI/ADR-RES): 54.3 µM (inactive)
- GI50 (NCI-H226): > 68.5 µM (inactive)
- GI50 (U-251): 44.6 µM (inactive)
- GI50 (A498): > 62.1 µM (inactive)
- GI50 (IGROV-1): 82.2 µM (inactive)
- GI50 (RPMI-8226): 24.9 µM (inactive)
- GI50 (PC-3): 63.5 µM (inactive)
- GI50 (UACC-257): 20.9 µM (inactive)
- GI50 (OVCAR-3): 33.7 µM (inactive)
- GI50 (SNB-75): 33.7 µM (inactive)
- GI50 (SF-539): > 100 µM (inactive)
- GI50 (SF-268): 49.7 µM (inactive)
- GI50 (SK-MEL-2): > 59.3 µM (inactive)
- GI50 (ACHN): > 100 µM (inactive)
- GI50 (MDA-MB-231): > 100 µM (inactive)
- GI50 (NCI-H522): 23.9 µM (inactive)
- GI50 (KM12): 31.1 µM (inactive)
- GI50 (MDA-N): 37.6 µM (inactive)
- GI50 (HL-60): 3.56 µM (inactive)
- GI50 (TK-10): 28.4 µM (inactive)
- GI50 (SW-620): 37.8 µM (inactive)
- GI50 (A549): 48 µM (inactive)
- GI50 (HCT-15): 58.2 µM
- GI50 (K562): 31.8 µM (inactive)
- GI50 (Hs-578T): > 70.3 µM (inactive)
- GI50 (HCT-116): 35.4 µM (inactive)
- GI50 (UO-31): > 100 µM (inactive)
- GI50 (RXF 393): 48 µM (inactive)
- GI50 (Malme-3M): 36.8 µM (inactive)
- GI50 (COLO 205): 23.2 µM (inactive)
- GI50 (MCF7): 31.3 µM (inactive)
- GI50 (BT-549): > 84.9 µM (inactive)
- GI50 (HOP-92): > 75.9 µM (inactive)
- GI50 (SK-MEL-5): 23.4 µM (inactive)
- GI50 (SNB-19): 66.4 µM (inactive)
- GI50 (SR): 31.7 µM (inactive)
- GI50 (MOLT-4): 25.6 µM (inactive)
- GI50 (EKVX): 30 µM (inactive)
- GI50 (M14): > 82.8 µM (inactive)
- GI50 (MDA-MB-435): 38.2 µM (inactive)
- GI50 (CAKI-1): > 100 µM (inactive)
- GI50 (HT-29): 58.6 µM (inactive)
- GI50 (OVCAR-5): > 100 µM (inactive)
- GI50 (SK-OV-3): > 100 µM (inactive)

SMILES: Cc1ccc(/N=C2\C(=O)C3=C(OC(C)(C)CC3)c3ccccc32)cc1
- GI50 (NCI-H460): 1.58 µM (inactive)
- GI50 (NCI-H23): 1.08 µM (active)
- GI50 (SF-295): 1.4 µM (inactive)
- GI50 (OVCAR-8): 0.357 µM (active)
- GI50 (T47D): 0.366 µM (active)
- GI50 (786-0): 1.78 µM (inactive)
- GI50 (OVCAR-4): 0.986 µM (active)
- GI50 (SN12C): 0.505 µM (active)
- GI50 (DU-145): 1.31 µM (inactive)
- GI50 (HOP-62): 0.542 µM (active)
- GI50 (SK-MEL-28): 1.21 µM (inactive)
- GI50 (UACC-62): 1.49 µM (inactive)
- GI50 (LOX IMVI): 0.269 µM (active)
- GI50 (CCRF-CEM): 2.04 µM (inactive)
- GI50 (NCI/ADR-RES): 0.318 µM (active)
- GI50 (NCI-H226): 2.86 µM (inactive)
- GI50 (U-251): 0.577 µM (active)
- GI50 (A498): 2.06 µM (inactive)
- GI50 (IGROV-1): 0.703 µM (active)
- GI50 (RPMI-8226): 0.232 µM (active)
- GI50 (PC-3): 1.22 µM (inactive)
- GI50 (UACC-257): 0.748 µM (active)
- GI50 (OVCAR-3): 0.151 µM (active)
- GI50 (SNB-75): 1.26 µM (inactive)
- GI50 (SF-268): 1.53 µM (inactive)
- GI50 (SK-MEL-2): 1.7 µM (inactive)
- GI50 (ACHN): 0.313 µM (active)
- GI50 (MDA-MB-231): 1.68 µM (inactive)
- GI50 (NCI-H522): 1.25 µM (inactive)
- GI50 (KM12): 1.52 µM (inactive)
- GI50 (MDA-N): 0.183 µM (active)
- GI50 (HL-60): 0.227 µM (active)
- GI50 (TK-10): 2.27 µM (inactive)
- GI50 (SW-620): 0.738 µM (active)
- GI50 (A549): 1.83 µM (inactive)
- GI50 (HCT-15): 0.415 µM
- GI50 (K562): 0.197 µM (active)
- GI50 (Hs-578T): 2.82 µM (inactive)
- GI50 (HCT-116): 0.292 µM (active)
- GI50 (UO-31): 0.652 µM (active)
- GI50 (RXF 393): 1.71 µM (inactive)
- GI50 (Malme-3M): 0.352 µM (active)
- GI50 (COLO 205): 1.69 µM (inactive)
- GI50 (MCF7): 0.29 µM (active)
- GI50 (BT-549): 1.33 µM (inactive)
- GI50 (HOP-92): 1.77 µM (inactive)
- GI50 (SK-MEL-5): 0.951 µM (active)
- GI50 (SNB-19): 0.851 µM (active)
- GI50 (SR): 0.275 µM (active)
- GI50 (MOLT-4): 0.729 µM (active)
- GI50 (EKVX): 1.81 µM (inactive)
- GI50 (M14): 0.459 µM (active)
- GI50 (MDA-MB-435): 0.183 µM (active)
- GI50 (CAKI-1): 1.71 µM (inactive)
- GI50 (HT-29): 0.247 µM (active)
- GI50 (OVCAR-5): 1.51 µM (inactive)
- GI50 (SK-OV-3): 1.57 µM (inactive)
- GI50 (HCC 2998): 1.77 µM (inactive)
